Measurements: patent publication US6989396B2, “Tropane alkaloid multidrug resistance inhibitors from Erythroxylum pervillei and use of the same” (The Board of Trustees of the University of Illinois, priority 2001, dated 2006)
“Also recorded” adds a separate entry of the source.

System: MDR1 mRNA
Assay: RT-PCR analysis of MDR1 mRNA expression
Assay type: cell-based, human
Settings: KB-V1 and CEM/VLB100 cells, 72 hours; pervilleine A up to 34 μM (up to 45 μM), verapamil up to 44 μM
Protocol: RT-PCR analysis of MDR1 mRNA expression. […] Total RNA was isolated from cultured KB-3, KB-V1, CEM and CEM/VLB100 cells with TRIzol reagent (Life Technologies, Inc.) (33), and quantified by UV absorbance. The reverse transcription of RNA was performed by using the SUPERScript™ Preamplification System (Life Technologies, Inc.) in a final volume of 21 μl containing 5×First Strain Synthesis Buffer, 2.5 mM MgCl2, 0.5 mM each dNTP, […], 2 units of RNAse inhibitor, 200 units of Super-Scrip II reverse transcriptase, 0.5 μg oligo (dT)12-18, 2 μg of total RNA (3 μg for CEM and CEM/VLB100 cells), and DEPC-treated water. After incubation at 42° C. for 50 minutes, the room temperature reaction was terminated by heating to 70° C. for 15 minutes. To the newly synthesized cDNA (2 μl), a PCR mixture containing 1.4 mM MgCl2 (1.2 mM for CEM and CEM/VLB100 cells), 2.5 units of Taq polymerase, 0.2 μmol (0.6 μmol for CEM and CEM/VLB100 cells) of primers based on the MDR1 gene (35) and custom synthesized by Ana-Gen Technology, Inc. (Palo Alto, Calif.) (5′-[…]-3′; 5′-[…]-3′) (35). As an internal control, 0.125 μmol (0.1 μmol for CEM and CEM/VLB100 cells) of primers for GAPDH (5′-[…]-3′; 5′-[…]-3′) (36) were added (final volume to 50 μl). […]

Structure (SMILES): COc1cc(C=CC(=O)O[C@H]2[C@@H](O)[C@@H]3C[C@H](OC(=O)c4cc(OC)c(OC)c(OC)c4)C[C@H]2N3C)cc(OC)c1OC [Compound 3, 3α-(3,4,5-trimethoxybenzoyloxy)-6β-(3,4,5-trimethoxycinnamoyloxy)-7β-hydroxytropane]
- effect on MDR1 mRNA (transcription of MDR1): no significant effect; also recorded: did not significantly alter; also recorded: did not significantly affect
